Assay results: patent US7973181B2, “Hydroxamic acid derivatives as inhibitors of HDAC enzymatic activity” (Chroma Therapeutics Ltd., priority 2005, dated 2011)

Legend:
[1] = target: histone deacetylase activity (HeLa nuclear extract); experiment: HDAC fluorescent activity assay (Biomol Fluor de Lys), HeLa nuclear extract; type: biochemical; conditions: Fluor de Lys substrate
Procedure: The ability of compounds to inhibit histone deacetylase activities was measured using the commercially available HDAC fluorescent activity assay from Biomol. In brief, the Fluor de Lys™ substrate, a lysine with an epsilon-amino acetylation, is incubated with the source of histone deacetylase activity (HeLa nuclear extract) in the presence or absence of inhibitor.
Deacetylation of the substrate sensitises the substrate to Fluor de Lys™ developer, which generates a fluorophore. Thus, incubation of the substrate with a source of HDAC activity results in an increase in signal that is diminished in the presence of an HDAC inhibitor.
Data are expressed as a percentage of the control, measured in the absence of inhibitor, with background signal being subtracted from all samples, as follows: — % activity=((S^i−B)/(S^o−B))×100 where S^i is the signal in the presence of substrate, enzyme and inhibitor, S^o is the signal in the presence of substrate, enzyme and the vehicle in which the inhibitor is dissolved, and B is the background signal measured in the absence of enzyme.
(§1) IC50 values were determined by non-linear regression analysis, after fitting the results of eight data points to the equation for sigmoidal dose response with variable slope (% activity against log concentration of compound), using Graphpad Prism software.
Histone deacetylase activity from crude nuclear extract derived from HeLa cells was used for screening. The preparation, purchased from 4C (Seneffe, Belgium), was prepared from HeLa cells harvested whilst in exponential growth phase. The nuclear extract is prepared according to Dignam JD1983 Nucl. Acid. Res. 11, 1475-1489, snap frozen in liquid nitrogen and stored at −80° C. The final buffer composition was 20 mM Hepes, 100 mM KCl, 0.2 mM EDTA, 0.5 mM DTT, 0.2 mM PMSF and 20% (v/v) glycerol.
Results of testing the compounds of the examples in this assay are given in the second column of Table 1 below.

Hela = experiment: Cell inhibition assay (SRB cell viability), Hela; type: cell-based; conditions: Homo sapiens, HeLa, 72 h, Hela cells
Procedure: (§2) The corresponding cancer cell lines (Hela, U937 and HUT) growing in log phase were harvested and seeded at 1000 cells/well (200 ul final volume) into 96-well tissue culture plates. Following 24 h of cell growth cells were treated with compounds (final concentration of 20 uM). Plates were then re-incubated for a further 72 h before a sulphorhodamine B (SRB) cell viability assay was conducted according to Skehan 1990 J Natl Canc Inst 82, 1107-1112.
(§3) Data were expressed as a percentage inhibition of the control, measured in the absence of inhibitor, as follows: — % inhibition=100−((S^i/S^o)×100) where S^i is the signal in the presence of inhibitor and S^o is the signal in the presence of DMSO.
as §1
(§4) Results of testing the compounds of the examples in this assay are given in the third- fifth columns of Table 1.

U937 = experiment: Cell inhibition assay (SRB cell viability), U937; type: cell-based; conditions: Homo sapiens, U-937, 72 h, U937 cells
Procedure: as §2, §3, §1, §4

HUT = experiment: Cell inhibition assay (SRB cell viability), HUT; type: cell-based; conditions: 72 h, HUT cells
Procedure: as §2, §3, §1, §4

SMILES | IC50 [1] [nM] | IC50 (Hela) [nM] | IC50 (U937) [nM] | IC50 (HUT) [nM]
COc1cc(CNCc2ccc3cc(C(=O)NO)sc3c2)ccc1OCCC[C@H](N)C(=O)OC1CCCC1 [Example 19, (S)-2-Amino-5-(4-{[(2-hydroxycarbamoyl-benzo[b]thiophen-6-ylmethyl)-amino]-methyl}-2-methoxyphenoxy)-pentanoic acid cyclopentyl ester] | < 100 | 330 to 3300 | 330 to 3300 | 330 to 3300
N[C@@H](CCOc1cccc(NC(=O)CCCCCCC(=O)NO)c1)C(=O)O [Example 6, (S)-2-Amino-4-[3-(7-hydroxycarbamoyl-heptanoylamino)-phenoxy]-butyric acid] | 101 to 1000 | > 3300 | 330 to 3300 | 330 to 3300
N[C@@H](CCOc1ccc(NC(=O)CCCCCCC(=O)NO)cc1)C(=O)OC1CCCC1 [Example 7, (S)-2-Amino-4-[4-(7-hydroxycarbamoyl-heptanoylamino)-phenoxy]-butyric acid cyclopentyl ester] | 101 to 1000 | 330 to 3300 | 330 to 3300 | 330 to 3300
N[C@@H](CCCOc1ccc(CNCc2ccc3cc(C(=O)NO)sc3c2)cc1)C(=O)OC1CCCC1 [Example 11, (S)-2-Amino-5-(4-{[(2-hydroxycarbamoyl-benzo[b]thiophen-6-ylmethyl)-amino]-methyl}-phenoxy)-pentanoic acid cyclopentyl ester] | < 100 | < 330 | < 330 | < 330
CC(=O)N[C@@H](CCCOc1ccc(CNCc2ccc3cc(C(=O)NO)sc3c2)cc1)C(=O)OC1CCCC1 [Example 21, (S)-2-Acetylamino-5-(4-{[(2-hydroxycarbamoyl-benzo[b]thiophen-6-ylmethyl)-amino]-methyl}-phenoxy)-pentanoic acid cyclopentyl ester] | < 100 | 330 to 3300 | 330 to 3300 | < 330
N[C@H](C(=O)OC1CCCC1)c1ccc(Oc2ccc(CNCc3ccc4cc(C(=O)NO)sc4c3)cc2)cc1 [Example 24, (S)-Amino-[4-(4-{[(2-hydroxycarbamoyl-benzo[b]thiophen-6-ylmethyl)-amino]-methyl}-phenoxy)-phenyl]-acetic acid cyclopentyl ester] | < 100 | 330 to 3300 | < 330 | < 330
CC(=O)N[C@@H](Cc1ccc(NC(=O)CCCCCCC(=O)NO)cc1)C(=O)O [Example 2, (S)-2-Acetylamino-3-[4-(7-hydroxycarbamoyl-heptanoylamino)-phenyl]-propionic acid] | 101 to 1000 | > 3300 | > 3300 | > 3300
CC(=O)N[C@H](Cc1ccc(NC(=O)CCCCCCC(=O)NO)cc1)C(=O)OC1CCCC1 [Example 3, (R)-2-Acetylamino-3-[4-(7-hydroxycarbamoyl-heptanoylamino)-phenyl]-propionic acid cyclopentyl ester] | 101 to 1000 | > 3300 | > 3300 | 330 to 3300
N[C@H](CCCOc1ccc(CNCc2ccc3cc(C(=O)NO)sc3c2)cc1)C(=O)OC1CCCC1 [Example 15, (R)-2-Amino-5-(4-{[(2-hydroxycarbamoyl-benzo[b]thiophen-6-ylmethyl)-amino]-methyl}-phenoxy)-pentanoic acid cyclopentyl ester] | < 100 | 330 to 3300 | < 330 | < 330
